From PMC4666608, “Metabolic Profiling of Chicken Embryos Exposed to Perfluorooctanoic Acid (PFOA) and Agonists to Peroxisome Proliferator-Activated Receptors” (PLoS ONE, 2015)
Marks after values point to notes of the source that are not given here.

System: chicken embryos
Assay: Metabolic profiling of allantoic fluid (GC-MS, LC-MS, OPLS-DA)
Format: in vivo, Gallus gallus domesticus
Settings: LC; for Mean concentration relative to control, feature 155.0353@0.6447272: suggested C3H10NO4P; for Mean concentration relative to control, feature 345.0497@1.1234403: suggested C10H12N5O7P; for Mean concentration relative to control, feature 337.0259@4.4213357: suggested C13H11N3O4S2; for Mean concentration relative to control, feature 344.1427@2.1164653: suggested C13H20N4O7; for Mean concentration relative to control, feature 331.184@6.373359: suggested C13H25N5O5; for Mean concentration relative to control, feature 361.2026@5.6644735: suggested C16H31N3O4S
Description: Controls were injected with 20 μL vehicle only (DMSO).
Plasma was collected and stored at -70°C.
Metabolites in allantoic fluid and blood plasma were analyzed using gas chromatography-mass spectrometry (GC-MS) and liquid chromatography-mass spectrometry (LC-MS) as described in S1 Methods. Prior to GC-MS and LC-MS analysis, allantoic fluid (100 μL) and blood plasma (50 μL) were extracted. To each sample, 900 μL (allantoic fluid) or 450 μL (blood plasma) of extraction buffer (90/10 v/v methanol:water) including all internal standards were added. Standards for GC-MS were proline, succinic acid, glutamic acid, salicylic acid, alpha-ketoglutarate, putrescine, myristic acid, hexadecanoic acid, cholesterol, and sucrose. Standards for LC-MS were Val-Tyr-Val, Leu-enkephalin, sulfadimethoxine and reserpine. Samples were homogenized by shaking in a bead mill at a frequency of 30 Hz for 3 minutes and proteins were precipitated at +4°C on ice. The samples were centrifuged at +4°C, 14000 rpm, for 10 min. Then, 200 μL supernatant was transferred to a GC microvial and 200 μL was transferred to an LC microvial, and solvents were evaporated. Samples from the four replicate experiments were analyzed using in chronological order and within each replicate experiment the run order of the individual samples was randomized.
Multivariate statistical analyses of metabolite profiles were performed using the software package SIMCA-P version 13.0 (Umetrics, Umeå, Sweden). Data was centered and scaled to variance 1 (UV scaling) prior to modelling. To reduce unintended systematic variation caused by sample processing and instrument drift, GC-MS and LC-MS metabolite amounts (expressed as the area under the chromatographic peak) were normalized by Orthogonal Partial Least Squares analysis (O2PLS) prior to multivariate data analysis. O2PLS finds common (predictive) and unique (orthogonal) variation in two data matrices. If applied to find the common variation between the data matrix containing the measured metabolite concentrations and a matrix containing only the internal standards, the only common (predictive) variation expected is due to the unintended systematic variation. By deleting the contribution of the predictive latent variables, that variation can be removed from the data. Models obtained after this normalization contain in general less latent variables, and this simplification helps when deciding on the number of latent variables to be used. Following normalization, GC-MS and LC-MS data were analyzed together. Initially, a global Principal Component Analysis (PCA) was performed to get an overview of groups and trends and to identify outliers. Projections to latent structures by means of Orthogonal Partial Least Squares Discriminant Analysis (OPLS-DA) was used to model the relationship between the X-matrix (metabolite concentrations) and the Y matrix (class, i.e. exposure group or sex), and to find x-variables that were related to class belonging. OPLS-DA is a supervised prediction and regression method that rotates the projection plane to find the maximum covariance between the data and the class assignment. All groups were first analyzed together in a 5-class OPLS-DA and then each exposure group was analyzed against the control group in a 2-class OPLS-DA. Sex differences were analyzed both using the whole data set and in each group separately using 2-class OPLS-DA, with females and males as the two classes. Only variables with 80% or more nonzero values were included in the statistical models. […] The validity of each model was also checked using CV-ANOVA (ANOVA of the cross-validated residuals). A significance level of p < 0.05 was used. For each model, R ^2 X, R ^2 Y and Q ^2 values were calculated, where R ^2 X is a measure of the fraction of x variation modeled in the extracted latent variables, R ^2 Y is a measure of the fraction of y variation modeled and Q ^2 is an estimate of the predictive ability of the model and is calculated by cross-validation. […]

O=C(O)C(F)(F)C(F)(F)C(F)(F)C(F)(F)C(F)(F)C(F)(F)C(F)(F)F [PFOA, perfluorooctanoic acid]
Mean concentration relative to control, feature 466.0837@2.1187525 (PFOA 50 μg/egg): 1.0 | Mean concentration relative to control, feature 488.0753@4.419585 (PFOA 50 μg/egg): 1.0 | Mean concentration relative to control, feature 498.1003@2.1184251 (PFOA 50 μg/egg): 1.0 | Mean concentration relative to control, feature 507.1682@2.1238236 (PFOA 50 μg/egg): 1.0 | Mean concentration relative to control, feature 580.1426@3.0726147 (PFOA 50 μg/egg): 1.0 | Mean concentration relative to control, feature 582.1578@2.1747615 (PFOA 50 μg/egg): 1.0 | Mean concentration relative to control, feature 588.1751@2.1182237 (PFOA 50 μg/egg): 1.0 | Mean concentration relative to control, feature 594.1337@3.0724604 (PFOA 50 μg/egg): 1.0 | Mean concentration relative to control, feature 604.1486@2.1174603 (PFOA 50 μg/egg): 1.0 | Mean concentration relative to control, feature 623.183@2.1249466 (PFOA 50 μg/egg): 0.9 | Mean concentration relative to control, feature 668.2625@6.4379454 (PFOA 50 μg/egg): 1.0 | Mean concentration relative to control, feature 155.0353@0.6447272 (PFOA 50 μg/egg): 0.4* | Mean concentration relative to control, feature 345.0497@1.1234403 (PFOA 50 μg/egg): 1.1 | Mean concentration relative to control, feature 337.0259@4.4213357 (PFOA 50 μg/egg): 1.0 | Mean concentration relative to control, feature 344.1427@2.1164653 (PFOA 50 μg/egg): 1.0 | Mean concentration relative to control, feature 331.184@6.373359 (PFOA 50 μg/egg): 0.9 | Mean concentration relative to control, feature 361.2026@5.6644735 (PFOA 50 μg/egg): 0.8 | Mean concentration relative to control, feature 134.0239@1.1350567 (PFOA 250 μg/egg): 0.9 | Mean concentration relative to control, feature 145.0538@3.072527 (PFOA 250 μg/egg): 1.1 | Mean concentration relative to control, feature 147.0328@3.0722888 (PFOA 250 μg/egg): 1.1 | Mean concentration relative to control, feature 160.0323@1.1950632 (PFOA 250 μg/egg): 1.1 | Mean concentration relative to control, feature 173.0488@3.0734746 (PFOA 250 μg/egg): 1.1 | Mean concentration relative to control, feature 176.0952@1.3890611 (PFOA 250 μg/egg): 0.5* | Mean concentration relative to control, feature 178.0428@1.7582192 (PFOA 250 μg/egg): 1.0 | Mean concentration relative to control, feature 180.0048@4.421465 (PFOA 250 μg/egg): 1.0 | Mean concentration relative to control, feature 189.1159@1.9209185 (PFOA 250 μg/egg): 0.9 | Mean concentration relative to control, feature 197.0639@2.1181405 (PFOA 250 μg/egg): 1.0 | Mean concentration relative to control, feature 201.012@3.046474 (PFOA 250 μg/egg): 1.1 | Mean concentration relative to control, feature 202.0429@2.9548414 (PFOA 250 μg/egg): 1.0 | Mean concentration relative to control, feature 205.0533@4.421879 (PFOA 250 μg/egg): 1.0 | Mean concentration relative to control, feature 214.016@2.1190732 (PFOA 250 μg/egg): 0.9 | Mean concentration relative to control, feature 226.0107@4.421457 (PFOA 250 μg/egg): 1.0 | Mean concentration relative to control, feature 236.0816@3.0720985 (PFOA 250 μg/egg): 1.1 | Mean concentration relative to control, feature 241.0551@2.3510706 (PFOA 250 μg/egg): 1.0 | Mean concentration relative to control, feature 243.1118@2.1537287 (PFOA 250 μg/egg): 1.0 | Mean concentration relative to control, feature 244.9972@4.421603 (PFOA 250 μg/egg): 1.0 | Mean concentration relative to control, feature 245.1563@2.2907295 (PFOA 250 μg/egg): 0.9 | Mean concentration relative to control, feature 250.0981@3.072492 (PFOA 250 μg/egg): 1.1 | Mean concentration relative to control, feature 262.0978@2.7961144 (PFOA 250 μg/egg): 1.1 | Mean concentration relative to control, feature 263.0855@2.2847009 (PFOA 250 μg/egg): 1.0 | Mean concentration relative to control, feature 270.0441@1.1407775 (PFOA 250 μg/egg): 1.0 | Mean concentration relative to control, feature 278.0928@3.0723689 (PFOA 250 μg/egg): 1.1 | Mean concentration relative to control, feature 279.1248@2.796395 (PFOA 250 μg/egg): 1.2 | Mean concentration relative to control, feature 280.1425@2.730277 (PFOA 250 μg/egg): 1.0 | Mean concentration relative to control, feature 288.1166@2.9551322 (PFOA 250 μg/egg): 1.2 | Mean concentration relative to control, feature 289.1012@3.249983 (PFOA 250 μg/egg): 1.0 | Mean concentration relative to control, feature 289.173@7.5030584 (PFOA 250 μg/egg): 1.2 | Mean concentration relative to control, feature 294.1242@2.3692534 (PFOA 250 μg/egg): 1.0 | Mean concentration relative to control, feature 302.0508@3.0722616 (PFOA 250 μg/egg): 1.1 | Mean concentration relative to control, feature 305.1682@5.353517 (PFOA 250 μg/egg): 0.5*** | Mean concentration relative to control, feature 305.1684@5.2955093 (PFOA 250 μg/egg): 0.7** | Mean concentration relative to control, feature 308.073@4.4211636 (PFOA 250 μg/egg): 1.0 | Mean concentration relative to control, feature 310.1181@1.5090439 (PFOA 250 μg/egg): 1.0 | Mean concentration relative to control, feature 316.0389@3.0725708 (PFOA 250 μg/egg): 1.1 | Mean concentration relative to control, feature 320.0626@3.0729218 (PFOA 250 μg/egg): 1.1 | Mean concentration relative to control, feature 325.1114@2.1190624 (PFOA 250 μg/egg): 1.1 | Mean concentration relative to control, feature 325.1115@2.3554378 (PFOA 250 μg/egg): 1.1 | Mean concentration relative to control, feature 333.1335@2.8639288 (PFOA 250 μg/egg): 0.9 | Mean concentration relative to control, feature 333.2005@6.5291867 (PFOA 250 μg/egg): 0.8* | Mean concentration relative to control, feature 335.1866@4.508565 (PFOA 250 μg/egg): 0.9 | Mean concentration relative to control, feature 337.1651@1.8737898 (PFOA 250 μg/egg): 0.9 | Mean concentration relative to control, feature 344.1424@2.348947 (PFOA 250 μg/egg): 1.0 | Mean concentration relative to control, feature 348.0553@3.0730357 (PFOA 250 μg/egg): 1.1 | Mean concentration relative to control, feature 349.1651@2.4087605 (PFOA 250 μg/egg): 0.9 | Mean concentration relative to control, feature 357.1997@6.9691257 (PFOA 250 μg/egg): 0.9 | Mean concentration relative to control, feature 371.1513@3.0009465 (PFOA 250 μg/egg): 1.2 | Mean concentration relative to control, feature 375.1819@3.672254 (PFOA 250 μg/egg): 0.9 | Mean concentration relative to control, feature 394.167@3.9552917 (PFOA 250 μg/egg): 1.0 | Mean concentration relative to control, feature 414.1482@2.118972 (PFOA 250 μg/egg): 1.1 | Mean concentration relative to control, feature 466.0837@2.1187525 (PFOA 250 μg/egg): 1.1 | Mean concentration relative to control, feature 488.0753@4.419585 (PFOA 250 μg/egg): 1.0 | Mean concentration relative to control, feature 498.1003@2.1184251 (PFOA 250 μg/egg): 1.0 | Mean concentration relative to control, feature 507.1682@2.1238236 (PFOA 250 μg/egg): 1.0 | Mean concentration relative to control, feature 580.1426@3.0726147 (PFOA 250 μg/egg): 1.2 | Mean concentration relative to control, feature 582.1578@2.1747615 (PFOA 250 μg/egg): 1.2 | Mean concentration relative to control, feature 588.1751@2.1182237 (PFOA 250 μg/egg): 1.1 | Mean concentration relative to control, feature 594.1337@3.0724604 (PFOA 250 μg/egg): 1.2 | Mean concentration relative to control, feature 604.1486@2.1174603 (PFOA 250 μg/egg): 1.0 | Mean concentration relative to control, feature 623.183@2.1249466 (PFOA 250 μg/egg): 1.1 | Mean concentration relative to control, feature 668.2625@6.4379454 (PFOA 250 μg/egg): 1.0 | Mean concentration relative to control, feature 155.0353@0.6447272 (PFOA 250 μg/egg): 0.3* | Mean concentration relative to control, feature 345.0497@1.1234403 (PFOA 250 μg/egg): 1.1 | Mean concentration relative to control, feature 337.0259@4.4213357 (PFOA 250 μg/egg): 1.0 | Mean concentration relative to control, feature 344.1427@2.1164653 (PFOA 250 μg/egg): 1.0 | Mean concentration relative to control, feature 331.184@6.373359 (PFOA 250 μg/egg): 0.7** | Mean concentration relative to control, feature 361.2026@5.6644735 (PFOA 250 μg/egg): 0.9
